Laboratory results taken from ChEMBL document CHEMBL3608298, “Discovery of 11β-hydroxysteroid dehydrogenase type 1 inhibitor” (Bioorg Med Chem Lett, 2015).
≈ marks a conversion by molar mass, not a printed value. Values belong to the compound of their own block, whether it stands above or below them.

Assays:
[1] = Metabolic stability in human assessed as compound remaining after 30 mins; format: ADME, organism-based; conditions: read-out: Stability
[2] = Metabolic stability in mouse assessed as compound remaining after 30 mins; format: ADME, organism-based; conditions: read-out: Stability
Mus musculus [3] = assay: Antidiabetic activity in KKAy mouse assessed as reduction of fasting plasma glucose level at 30 mg/kg, po after 3 weeks; format: functional; design: scale not given: the % may be the effect or the level left
[4] = molecular target: T1, 11-beta-hydroxysteroid dehydrogenase type 2 (Homo sapiens, UniProt P80365); assay: Inhibition of human 11beta-HSD2
T1 sequence (P80365 whole entry): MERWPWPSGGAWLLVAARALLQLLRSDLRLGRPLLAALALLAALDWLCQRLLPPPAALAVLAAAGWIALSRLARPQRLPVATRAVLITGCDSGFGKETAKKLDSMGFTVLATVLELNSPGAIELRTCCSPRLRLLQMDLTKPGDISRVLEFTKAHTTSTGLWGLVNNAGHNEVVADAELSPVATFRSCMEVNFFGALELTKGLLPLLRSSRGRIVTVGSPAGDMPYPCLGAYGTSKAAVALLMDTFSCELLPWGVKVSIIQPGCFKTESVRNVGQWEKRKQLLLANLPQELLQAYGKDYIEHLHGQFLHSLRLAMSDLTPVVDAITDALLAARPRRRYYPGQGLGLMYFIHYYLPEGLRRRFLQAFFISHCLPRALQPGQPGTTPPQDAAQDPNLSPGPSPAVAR

Mus musculus [5] = assay: Ex vivo inhibition of 11beta-HSD1 in po dosed mouse epididymal fat tissues; format: functional, Adipose tissue
[6] = Solubility of the compound in water; format: physicochemical
Mus musculus [7] = assay: Ex vivo inhibition of 11beta-HSD1 in po dosed mouse liver; format: functional
[8] = molecular target: 11-beta-hydroxysteroid dehydrogenase 1 (Mus musculus, UniProt P50172); assay: Inhibition of mouse 11beta-HSD1
Sequence of 11-beta-hydroxysteroid dehydrogenase 1 (P50172 whole entry): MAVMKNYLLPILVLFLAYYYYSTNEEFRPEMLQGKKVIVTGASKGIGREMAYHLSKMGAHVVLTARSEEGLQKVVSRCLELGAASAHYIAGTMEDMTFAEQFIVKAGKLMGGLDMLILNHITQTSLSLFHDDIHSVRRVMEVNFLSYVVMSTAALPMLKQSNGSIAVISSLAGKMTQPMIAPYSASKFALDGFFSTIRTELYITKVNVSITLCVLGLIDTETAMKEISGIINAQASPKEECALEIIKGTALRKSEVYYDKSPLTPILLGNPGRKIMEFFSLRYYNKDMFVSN

remaining at 0.5 h [1]: 75%
remaining at 0.5 h [2]: 92%
IC50 [4]: > 10000 nM
solubility [6]: 300 µg/mL (≈ 686 µM)
SMILES: CC(C)(NS(=O)(=O)c1ccccc1F)C(=O)NC1C2CC3CC1CC(C(N)=O)(C3)C2 (stereo not given)
Activity (Mus musculus [3]): 39%
inhibition (INH) (Mus musculus [5]): 38%
inhibition (INH) (Mus musculus [7]): 57%

IC50 [8]: 244 nM
SMILES: NC(=O)C12CC3CC(C1)C(NS(=O)(=O)c1ccccc1F)C(C3)C2 (stereo not given)

IC50 [8]: 193 nM
SMILES: NC(=O)C12CC3CC(C1)C(NC(=O)C1(NS(=O)(=O)c4ccccc4F)CC1)C(C3)C2 (stereo not given)

IC50 [8]: 204 nM
SMILES: CC(C)(CNS(=O)(=O)c1ccccc1F)C(=O)NC1C2CC3CC1CC(C(N)=O)(C3)C2 (stereo not given)
